Results from publication PMC2972656 (Bioorganic & medicinal chemistry, 2010).
Counter-ions that a name gives are not always drawn.

Key:
[1] = biological target: T1, α1β3γ2 GABAA/BzR (Homo sapiens, UniProt P14867+P18507); assay: [3H]flunitrazepam competition binding, α1β3γ2; details: for selectivity for the α1β3γ2 subtype: enantiomeric sec-butyl esters
[2] = system: other receptors; assay: NIMH supported PDSP screen; type: binding
[3] = system: BzR; assay: Binding to BzR, overall statement; set-up: species or system human; details: Boc protection at position-9
[4] = biological target: α5β3γ2 GABAA/BzR (Homo sapiens, UniProt P18507+P31644); assay: [3H]flunitrazepam competition binding, α5β3γ2
[5] = biological target: α2β3γ2 GABAA/BzR (Homo sapiens, UniProt P18507+P47869); assay: [3H]flunitrazepam competition binding, α2β3γ2
[6] = biological target: T1, α1β3γ2 GABAA/BzR; details: binding; cited from earlier work
[7] = system: alcohol preferring (P) rats; details: 15–60 mg/kg, comparable with chlordiazepoxide; cited from earlier work

C[C@@H](OC(=O)c1cc2c(cn1)[nH]c1ccccc12)C(F)(F)F [compound 22, (R)-1,1,1-Trifluoroisopropyl β-carboline-3-carboxylate]
selectivity for α1 isoforms over α5 isoforms ([1]; binding): ~70 fold

C#Cc1ccc2[nH]c3cnc(C(=O)OC(C)(C)C)cc3c2c1 [7(WYS8), 6-Ethynl-9H-β-carboline-3-carboxylic acid t-butyl ester]
interactions at other receptors [2]: neither βCCT, 3PBC, nor WYS8 exhibited significant interactions at other receptors

CC(C)(C)OC(=O)c1cc2c3cc(I)ccc3n(C(=O)OC(C)(C)C)c2cn1 [compound 41]
binding to BzR [3]: did not bind to BzR at all

C#Cc1ccc2c(c1)c1cc(C(=O)OC(C)(C)C)ncc1n2C(=O)OC(C)(C)C [compound 40]
binding to BzR [3]: did not bind to BzR at all

CC[C@H](C)OC(=O)c1cc2c(cn1)[nH]c1ccccc12 [compound 23, (S)-β-Carboline-3-carboxylic acid sec-butyl ester]
selectivity for the α1β3γ2 subtype ([1]; binding): ~4 fold | Ki [4]: 1440 nM

CC(C)COc1cc2c(cn1)[nH]c1ccccc12 [compound 37]
Ki [4]: ≥ 1000 nM

CC[C@@H](C)OC(=O)c1cc2c(cn1)[nH]c1ccccc12 [compound 24, (R)-β-Carboline-3-carboxylic acid sec-butyl ester]
selectivity for the α1β3γ2 subtype ([1]; binding): ~4 fold | Ki [5]: 32.5 nM

CCCOc1cc2c(cn1)[nH]c1ccccc12 [2(3-PBC), 3-propoxy-β-carboline hydrochloride]
interactions at other receptors [2]: neither βCCT, 3PBC, nor WYS8 exhibited significant interactions at other receptors | selectivity for the α1 site over the α5 subtype [6]: over 150 fold | selectivity for the α1 subtype over the α2 and α3 receptors [6]: 10 fold | effects in the plus maze [7]: anxiolytic effects

c1ccc(COc2cc3c4ccccc4nc-3c[nH]2)cc1 [compound 35, 3-benzyloxy β-carboline]
Ki [1]: 830 nM
